pKi: −log10 of the molar value.
Tests used:
hNET [1] = biological target: T1, hNET (Homo sapiens, UniProt P23975); test: hNET membrane radioligand binding assay (3H-nisoxetine), Assay 1
Description: (§3) Membrane radioligand binding assays were used to measure inhibition of labeled ligand (^3H-citalopram or ^3H-nisoxetine or ^3H-WIN35428) binding to membranes prepared from cells expressing the respective human recombinant transporter (hSERT or hNET or hDAT) in order to determine the pKi values of test compounds at the transporters.
(§4) Recombinant human embryonic kidney (HEK-293) derived cell lines stably transfected with hSERT or hNET, respectively, were grown in DMEM medium supplemented with 10% dialyzed FBS (for hSERT) or FBS (for hNET), 100 μg/mL penicillin, 100 μg/mL streptomycin, 2 mM L-glutamine and 250 μg/mL of the aminoglycoside antibiotic G418, in a 5% CO2 humidified incubator at 37° C. When cultures reached 80% confluence, the cells were washed thoroughly in PBS (without Ca^2+ and Mg^2+) and lifted with 5 mM EDTA in PBS. Cells were pelleted by centrifugation, resuspended in lysis buffer (10 mM Tris-HCl, pH7.5 containing 1 mM EDTA), homogenized, pelleted by centrifugation, then resuspended in 50 mM Tris-HCl, pH 7.5 and 10% sucrose at 4° C. Protein concentration of the membrane suspension was determined using a Bio-Rad Bradford Protein Assay kit. Membranes were snap frozen and stored at −80° C.
(§5) Binding assays were performed in a 96-well assay plate in a total volume of 200 μl assay buffer (50 mM Tris-HCl, 120 mM NaCl, 5 mM KCl, pH 7.4) with 0.5, 1, and 3 μg membrane protein, for SERT, NET and DAT, respectively.
(§6) Stock solutions (10 mM in DMSO) of test compound were prepared and serial dilutions made using Dilution Buffer (50 mM Tris-HCl, 120 mM NaCl, 5 mM KCl, pH 7.4, 0.1% BSA, 400 μM ascorbic acid).
(§7) Following a 60 minute incubation at 22° C. (or a period sufficient to reach equilibrium), the membranes were harvested by rapid filtration over a 96-well UniFilter GF/B plate, pretreated with 0.3% polyethyleneimine, and washed 6 times with 300 μl wash buffer (50 mM Tris-HCl, 0.9% NaCl, pH 7.5 at 4° C.). Plates were dried overnight at room temperature, approximately 45 μl of MicroScint™-20 (Perkin Elmer) added and bound radioactivity quantitated via liquid scintillation spectroscopy. Inhibition curves and saturation isotherms were analyzed using GraphPad Prism Software package (GraphPad Software, Inc., San Diego, Calif.). IC50 values were generated from concentration response curves using the Sigmoidal Dose Response (variable slope) algorithm in Prism GraphPad.

hNET [2] = biological target: T1, hNET; test: hNET neurotransmitter uptake assay (3H-NE), Assay 2; assay type: cell-based; design: expressed in transfected cells; host or cells: HEK-293; details: norepinephrine reuptake inhibition, 3H-NE uptake, HEK-293 hNET cells (values without asterisk); read-out: NET pIC50 (converted)
Description: (§1) Cells were harvested by centrifugation at 1100 rpm for 5 minutes, washed once by resuspension in PBS, then centrifuged. The supernatant was discarded and the cell pellet resuspended, by gentle trituration, in room temperature Krebs-Ringer bicarbonate buffer containing HEPES (10 mM), CaCl2 (2.2 mM), ascorbic acid (200 μM) and pargyline (200 μM), pH 7.4.
(§2) Test compounds were incubated for 30 minutes at 37° C. with the respective cells, prior to addition of radiolabeled neurotransmitter, ^3H-5-HT (20 nM final concentration), ^3H-NE (50 nM final concentration) or ^3H-DA (100 nM final concentration).

hSERT [3] = biological target: T2, hSERT (Homo sapiens, UniProt P31645); test: hSERT neurotransmitter uptake assay (3H-5-HT), Assay 2; assay type: cell-based; design: expressed in transfected cells; host or cells: HEK-293; details: serotonin reuptake inhibition, 3H-5-HT uptake, HEK-293 hSERT cells (values without asterisk); read-out: SERT pIC50 (converted)
T2 sequence (P31645 whole entry): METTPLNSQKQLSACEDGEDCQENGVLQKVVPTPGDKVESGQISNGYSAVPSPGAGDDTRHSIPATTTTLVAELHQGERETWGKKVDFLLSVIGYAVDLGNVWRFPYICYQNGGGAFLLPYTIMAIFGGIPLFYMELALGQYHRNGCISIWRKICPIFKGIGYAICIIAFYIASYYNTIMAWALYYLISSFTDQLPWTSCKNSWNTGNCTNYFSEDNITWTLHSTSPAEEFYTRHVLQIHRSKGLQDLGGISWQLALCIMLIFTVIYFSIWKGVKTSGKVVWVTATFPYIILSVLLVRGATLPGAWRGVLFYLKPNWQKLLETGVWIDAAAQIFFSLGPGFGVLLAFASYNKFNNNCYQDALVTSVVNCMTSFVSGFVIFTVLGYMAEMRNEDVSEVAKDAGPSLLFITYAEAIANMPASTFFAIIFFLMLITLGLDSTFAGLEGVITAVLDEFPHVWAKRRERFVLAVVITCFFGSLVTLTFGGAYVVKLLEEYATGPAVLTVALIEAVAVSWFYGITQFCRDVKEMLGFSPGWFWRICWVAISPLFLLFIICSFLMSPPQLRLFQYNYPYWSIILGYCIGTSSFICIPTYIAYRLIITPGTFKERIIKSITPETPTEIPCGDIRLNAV
Description: as §1, §2

hSERT [4] = biological target: T2, hSERT; test: hSERT membrane radioligand binding assay (3H-citalopram), Assay 1; details: SERT pKi, hSERT HEK-293 membranes, 1.0 nM 3H-citalopram; values given as lower bounds
Description: as §3, §4, §5, §6, §7

T1 sequence (P23975 whole entry): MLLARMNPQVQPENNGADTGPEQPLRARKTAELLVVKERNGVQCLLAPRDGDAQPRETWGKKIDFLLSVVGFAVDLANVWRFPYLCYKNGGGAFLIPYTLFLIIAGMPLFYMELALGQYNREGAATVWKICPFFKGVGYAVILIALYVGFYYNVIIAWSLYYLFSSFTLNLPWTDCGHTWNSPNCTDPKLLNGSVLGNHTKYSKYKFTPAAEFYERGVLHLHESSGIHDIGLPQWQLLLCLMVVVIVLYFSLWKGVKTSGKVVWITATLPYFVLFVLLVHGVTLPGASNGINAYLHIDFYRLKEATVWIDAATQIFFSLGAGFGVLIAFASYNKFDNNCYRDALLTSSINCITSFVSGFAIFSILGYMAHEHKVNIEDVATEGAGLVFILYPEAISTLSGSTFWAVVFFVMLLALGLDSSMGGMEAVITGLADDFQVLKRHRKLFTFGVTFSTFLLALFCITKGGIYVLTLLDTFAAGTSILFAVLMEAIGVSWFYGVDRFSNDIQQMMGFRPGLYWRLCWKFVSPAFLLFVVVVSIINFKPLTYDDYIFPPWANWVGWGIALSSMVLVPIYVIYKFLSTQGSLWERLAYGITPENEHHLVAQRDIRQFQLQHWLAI

Structure (SMILES) | pKi (hNET [1]) | IC50 (hNET [2]) | IC50 (hSERT [3]) | pKi (hSERT [4])
CC[C@H](Oc1ccc(Cl)c(Cl)c1)[C@H]1CCNC1 [Example 2-7, (S)-3-[(S)-1-(3,4-Dichlorophenoxy)propyl]pyrrolidine] | ≥ 8.00 | ≤ 10 nM | ≤ 10 nM | ≥ 8.00
CC[C@H](Oc1ccc(Cl)c(C)c1)[C@H]1CCNC1 [Example 2-13, (S)-3-[(S)-1-(4-Chloro-3-methylphenoxy)propyl]pyrrolidine] | ≥ 8.00 | ≤ 10 nM | ≤ 10 nM | ≥ 8.00
CC[C@H](Oc1cc(Cl)cc(Cl)c1)[C@H]1CCNC1 [Example 2-18, (S)-3-[(S)-1-(3,5-Dichlorophenoxy)propyl]pyrrolidine] | ≥ 7.00 | ≤ 100 nM | ≤ 100 nM | ≥ 8.00
CC[C@@H](Oc1cc(Cl)cc(Cl)c1)[C@@H]1CCNC1 [Example 2-19, (R)-3-[(R)-1-(3,5-Dichlorophenoxy)propyl]pyrrolidine] | ≥ 8.00 | ≤ 100 nM | ≤ 100 nM | ≥ 8.00
CC[C@H](Oc1ccc(F)c(Cl)c1)[C@H]1CCNC1 [Example 2-21, (S)-3-[(S)-1-(3-Chloro-4-fluorophenoxy)propyl]pyrrolidine] | ≥ 8.00 | ≤ 10 nM | ≤ 100 nM | ≥ 8.00
CC[C@H](Oc1cc(F)c(OC)c(F)c1)[C@H]1CCNC1 [Example 2-22, (S)-3-[(S)-1-(3,5-Difluoro-4-methoxyphenoxy)propyl]pyrrolidine] | ≥ 8.00 | ≤ 10 nM | ≤ 100 nM | ≥ 8.00
CC[C@H](Oc1ccccc1Cl)[C@H]1CCNC1 [Example 2-23, (S)-3-[(S)-1-(2-Chlorophenoxy)propyl]pyrrolidine] | ≥ 8.00 | ≤ 10 nM | ≤ 100 nM | ≥ 8.00
CC[C@H](Oc1c(F)cccc1Cl)[C@H]1CCNC1 [Example 2-25, (S)-3-[(S)-1-(2-Chloro-6-fluorophenoxy)-propyl]pyrrolidine] | ≥ 8.00 | ≤ 10 nM | ≤ 100 nM | ≥ 8.00
CC[C@H](Oc1c(C)cccc1Cl)[C@H]1CCNC1 [Example 2-27, (S)-3-[(S)-1-(2-Chloro-6-methylphenoxy)propyl]pyrrolidine] | ≥ 8.00 | ≤ 10 nM | ≤ 100 nM | ≥ 8.00
CC[C@H](Oc1cccc(Cl)c1Cl)[C@H]1CCNC1 [Example 2-28, (S)-3-[(S)-1-(2,3-Dichlorophenoxy)propyl]pyrrolidine] | ≥ 8.00 | ≤ 10 nM | ≤ 10 nM | ≥ 8.00
CC[C@@H](Oc1cccc(Cl)c1Cl)[C@@H]1CCNC1 [Example 2-29, (R)-3-[(R)-1-(2,3-Dichlorophenoxy)propyl]pyrrolidine] | ≥ 8.00 | ≤ 10 nM | ≤ 10 nM | ≥ 8.00
CC[C@H](Oc1ccc(F)cc1Cl)[C@H]1CCNC1 [Example 2-32, (S)-3-[(S)-1-(2-Chloro-4-fluorophenoxy)propyl]pyrrolidine] | ≥ 8.00 | ≤ 10 nM | ≤ 10 nM | ≥ 8.00
CC[C@H](Oc1c(Cl)ccc(Cl)c1Cl)[C@H]1CCNC1 [Example 2-37, (S)-3-[(S)-1-(2,3,6-Trichlorophenoxy)propyl]pyrrolidine] | ≥ 8.00 | ≤ 10 nM | ≤ 100 nM | ≥ 8.00
CC[C@@H](Oc1c(Cl)ccc(Cl)c1Cl)[C@H]1CCNC1 [Example 2-38, (S)-3-[(R)-1-(2,3,6-Trichlorophenoxy)propyl]pyrrolidine] | ≥ 8.00 | ≤ 10 nM | ≤ 100 nM | ≥ 8.00
CC[C@@H](Oc1c(F)ccc(Cl)c1Cl)[C@H]1CCNC1 [Example 2-39, (S)-3-[(R)-1-(2,3-Dichloro-6-fluorophenoxy)propyl]pyrrolidine] | ≥ 8.00 | ≤ 10 nM | ≤ 100 nM | ≥ 8.00
CC[C@H](Oc1c(F)ccc(F)c1Cl)[C@H]1CCNC1 [Example 2-40, (S)-3-[(S)-1-(2-Chloro-3,6-difluorophenoxy)propyl]pyrrolidine] | ≥ 8.00 | ≤ 10 nM | ≤ 100 nM | ≥ 8.00
CC[C@@H](Oc1c(F)ccc(F)c1Cl)[C@H]1CCNC1 [Example 2-41, (S)-3-[(R)-1-(2-Chloro-3,6-difluorophenoxy)propyl]pyrrolidine] | ≥ 8.00 | ≤ 10 nM | ≤ 100 nM | ≥ 8.00

Source: patent publication US7994209B2, “3-phenoxymethylpyrrolidine compounds” (Theravance, Inc., priority 2009, dated 2011)
